According to paper PMC10993450, “New benzimidazole derivative compounds with in vitro fasciolicidal properties” (Parasites & Vectors, 2024):
Where “and” joins values, the source holds several entries; their conditions need not be identical. Equal values may be shown once.

How the values were obtained:
[1] = system: Fasciola hepatica eggs (ABZ-resistant isolate); assay: Egg hatch test (EHT), ABZ-resistant isolate; assay type: cell-based; conditions: 5 µM, mean ± SEM
From the text: F. hepatica eggs were recovered after washing the gallbladder of three naturally infected sheep belonging to a flock suspected to be resistant to ABZ. From these eggs, metacercariae were produced at the Centro de Investigaciones de Mabegondo (AGACAL, Xunta de Galicia, Spain) following a previous protocol. These metacercariae were used to infect eight sheep with a dose of 200 metacercariae. The infection was confirmed individually 3 months after the infection by coprological analysis using a sedimentation technique. At that point, sheep were randomly located in two groups of four animals: one treated with a therapeutic dose of ABZ (7.5 mg/kg) and the other one only with water, as control group. To assess the efficacy of ABZ in this isolate, all sheep were humanely euthanized by an intravenous administration of a lethal dose of sodium pentobarbital (Dolethal®, Vetoquinol, Spain) 2 weeks later for fluke recovery and counting. Afterwards, the in vivo efficacy of ABZ was calculated as the percentage of adult worm reduction compared with the untreated control. Additionally, the number of eggs per gram of feces (EPG) was estimated on the treatment day (mentioned as day 0) and 14 days later to determine drug efficacy by means of the fecal egg count reduction test (FECRT).
During the necropsy, gallbladders from sheep belonging to the untreated group were taken to collect the eggs and carry out the in vitro EHT, while flukes collected from livers were used to conduct the adult viability test (AVT).
Those BZDs with an activity higher than 80% at a concentration of 10 µM were also screened on eggs and adults from the ABZ resistant isolate.
The in vitro EHT described in the current study was based on previous studies. Briefly, 100–120 eggs were incubated in 990 µL of water and 10 μL of each working solution at 25 °C in the dark for a period of 12 h. After incubation, eggs were gently washed with tap water three times to facilitate compound removal and kept in darkness at 25 °C for 14 days. After this period, eggs were exposed to light for 2 h to stimulate the hatching of eggs. Then, hatched and unhatched eggs were evaluated and counted using an optical microscope. The term “hatched eggs” includes both hatched and embryonated eggs. Negative control eggs were incubated with 10 μL of DMSO in 990 μL of water, reaching a maximum DMSO concentration of 1% (v/v), while ABZ at 0.5 µM was used as positive control. Each compound at a specific concentration was tested in triplicate in the same EHT and repeated at least two different days.
The efficacy of each compound and drug was calculated as its ovicidal activity following the formula below: Ovicidal activity%=100×%eggs hatched in negative control-%egg hatched after drug incubation/%egg hatched in control.

[2] = system: Teladorsagia circumcincta eggs; conditions: type II BZDs; read-out: IC50 against T. circumcincta eggs; cited from earlier work
Caco2 cells = system: Caco2 cells; parameters: method as in doi:10.1016/j.molstruc.2022.133735; conditions: cited from earlier work

SMILES	% Ovicidal activity resistant isolate [1]	IC50 [2]	% Ovicidal activity resistant isolate ([1]; listed as BZD-46)	% Ovicidal activity resistant isolate ([1]; listed as BZD-56)	CC50 (Caco2 cells)	% Ovicidal activity resistant isolate ([1]; listed as BZD-59)
Cc1ccc2[nH]c(NCc3cccs3)nc2c1 [BZD31]	53% and 53.24 ± 20.94%	–	–	–	–	–
Cc1ccc2[nH]c(NC(=O)c3ccccc3)nc2c1 [BZD46]	11.06 ± 05.30%	~1000 nM	below 13%	–	–	–
COc1ccc2[nH]c(NC(=O)c3ccccc3)nc2c1 [BZD56]	12.39 ± 03.71%	~1000 nM	–	below 13%	–	–
O=C(Nc1nc2cc(Cl)ccc2[nH]1)c1ccccc1 [BZD59]	06.28 ± 05.20%	~1000 nM	–	–	~62000 nM	below 13%
